Assay results as given in US10202386B2, “Pyrrolo[3,2-D]pyrimidine derivatives as inducers of human interferon” (GlaxoSmithKline Intellectual Property (No.2) Limited, priority 2014, dated 2019).
Counter-ions that a name gives are not always drawn.

Experiments:
Type in all cases: cell-based
IFN-α [1] = assay: Induction of Interferon-α using fresh human peripheral blood mononuclear cells (PBMCs); details: PBMC, three donors, 24 hr incubation, response as % of 2 μM resiquimod control, read-out: mean pEC50 for IFN-α (converted)
Description: (§1) Assay for the Induction of Interferon-α and TNF-α Using Fresh Human Peripheral Blood Mononuclear Cells (PBMCs)
(§2) Compounds were dispensed by at 100× the required concentration in DMSO (1 uL/well in a flat bottom 96-well cell culture plate). Each compound was assayed in duplicate for each donor. Each plate contained a dilution series of the TLR7/8 agonist resiquimod as standard and Column 11 contained 1 μL of 200 μM resiquimod (giving a 2 μM final concentration, used to define the approximate maximal response to resiquimod).
(§3) Blood samples from three human donors were collected into sodium heparin (10 U/ml). 25 mL volumes of whole blood were overlaid onto 15 mL Histopaque in Leucosep tubes which were centrifuged at 400 g for 30 min and the band at the plasma/histopaque interface carefully removed into a sterile 50 mL conical tube. The volume in the tube was made up to 50 mL with sterile DPBS (Dulbecco's phosphate buffered saline, —CaCl2/MgCl2) and centrifuged at 300 g for 10 min. The cell pellet was resuspended in 20 mL of media (RPMI 1640 (Low endotoxin) supplemented with 10% v/v foetal calf serum (FCS, low endotoxin) 100 U/mL penicillin G, 100 μg/mL streptomycin, 10 mM L-glutamine and 1× non-essential amino acids), and the cells counted using the Nucleoview 3000 (Chemometec, Via-1 Cassette). The PBMCs concentration was adjusted to give a final concentration of 2×10^6/mL and 100 uL of this cells suspension was added to wells containing 1 μL of diluted test compound.
(§4) The cell preparations were incubated for 24 hr (37° C., 95% air, 5% CO2) after which a sample of the supernatant was removed using the Biomek FX and assayed for both IFN-α and TNF-α using the MSD (Mesoscale Discovery) electrochemiluminescence assay platform. The IFN-α assay was carried out similarly to that described above. The TNF-α assay was carried out as per kit instructions (Cat No K111BHB).
(§5) Cytokine released was expressed as a percentage of the 2 μM resiquimod control (column 11). This percentage was plotted against compound concentration and the pEC50 for the response determined by non-linear least squares curve fitting. For the IFN-α responses generally a 4 parameter logistic model was selected. For the TNF-α responses where a clear maximum response was obtained (i.e. a well defined plateau in the response was observed) then a 4 parameter model was generally used. If the upper asymptote of the curve wasn't well defined then the curve fitting was generally constrained to a maximal response of 100% (i.e. to the response to 2 μM resiquimod) or to the response of the highest concentration tested if this was greater than the resiquimod response. Some curves were bell shaped for one or both cytokines and the cytokine data on the down slope of the bell shaped response (i.e. concentrations above those giving the maximal response) were generally excluded from the fit, usually with the exception of the concentration immediately above the peak response. Curve fitting thus concentrated on the up slope of the dose response curve.

TNF-α [2] = assay: Induction of TNF-α using fresh human whole blood (WB); details: three donors, overnight incubation, response as % of 2 μM resiquimod control, read-out: mean pEC50 for TNF-α (converted)
Description: (§6) Assay for the Induction of Interferon-α and TNF-α Using Fresh Human Whole Blood (WB)
(§7) Compounds were prepared at 100× required concentration in DMSO in flat-bottom microtitre plates at a volume of 1.5 μL. Columns 1-10 contained a 1 in 4 serial dilution of the test compound. Included on each plate was a serial dilution of the TLR7/8 agonist resiquimod as a standard and Column 11 contained 1.5 μl of 200 μM resiquimod (giving a 2 μM final concentration, used to define the approximate maximal response to resiquimod). Each compound was assayed in duplicate for each donor.
(§8) Blood samples from three human donors were collected into sodium heparin (10 U/ml). 150 μl of whole Blood was dispensed into Col 1 to 11 of assay plates containing 1.5 μl of test compound or standard in DMSO. Plates were placed in an incubator overnight (37° C., 95% air, 5% CO2). Following the overnight incubation, plates were removed from the incubator & mixed on an orbital shaker for approximately 1 minute. 100 μl of 0.9% saline was added to each well and the plates mixed again on an orbital shaker. Plates were then centrifuged (2500 rpm, 10 mins), after which a sample of plasma was removed using a Biomek FX and assayed for both IFN-α and TNF-α using the MSD (Mesoscale Discovery) electrochemiluminescence assay platform. The IFN-α assay was carried out similarly to that described above. The TNF-α assay was carried out as per kit instructions (Cat No K111BHB).
as §5, with “IFN-α responses,” for “IFN-α responses”

TNF-α [3] = assay: Induction of TNF-α using fresh human peripheral blood mononuclear cells (PBMCs); details: PBMC, three donors, 24 hr incubation, response as % of 2 μM resiquimod control, read-out: mean pEC50 for TNF-α (converted)
Description: as §1, §2, §3, §4, §5

IFN-α [4] = assay: Induction of Interferon-α using fresh human whole blood (WB); details: three donors, overnight incubation, response as % of 2 μM resiquimod control, read-out: mean pEC50 for IFN-α (converted)
Description: as §6, §7, §8
as §5, with “IFN-α responses,” for “IFN-α responses”

Row | EC50 (IFN-α [1]) [µM] | EC50 (TNF-α [2]) [µM] | EC50 (TNF-α [3]) [µM] | EC50 (IFN-α [4]) [µM] | SMILES
1 | 0.501 to 3.98 | ≥ 50.1 | ≥ 50.1 | ≥ 2 | Cc1nc(N)c2[nH]c(C)c(CCCCCN3CCCC3)c2n1 [Example 2, 2,6-Dimethyl-7-(5-(pyrrolidin-1-yl)pentyl)-5H-pyrrolo[3,2-d]pyrimidin-4-amine maleate]
2 | 0.501 to 3.98 | ≥ 50.1 | ≥ 50.1 | ≥ 2 | Cc1nc(N)c2[nH]c(C)c(CCCCCN(CCO)CCO)c2n1 [Example 3, 2,2′-((5-(4-Amino-2,6-dimethyl-5H-pyrrolo[3,2-d]pyrimidin-7-yl)pentyl)azanediyl)diethanol formate]
3 | 0.501 to 3.98 | ≥ 50.1 | ≥ 50.1 | ≥ 2 | Cc1nc(N)c2[nH]c(C)c(CCCCCCN(CCO)CCO)c2n1 [Example 4, 2,2′-((6-(4-Amino-2,6-dimethyl-5H-pyrrolo[3,2-d]pyrimidin-7-yl)hexyl)azanediyl)diethanol formate]
4 | 0.501 to 3.98 | ≥ 50.1 | ≥ 50.1 | ≥ 2 | Cc1nc(N)c2[nH]c(C)c(CCCCCCNCCO)c2n1 [Example 7, 2-((6-(4-Amino-2,6-dimethyl-5H-pyrrolo[3,2-d]pyrimidin-7-yl)hexyl)amino)ethanol]
5 | 0.501 to 3.98 | ≥ 50.1 | ≥ 50.1 | ≥ 2 | COCCN(CCCCCCc1c(C)[nH]c2c(N)nc(C)nc12)CCOC [Example 6, 7-(6-(bis(2-Methoxyethyl)amino)hexyl)-2,6-dimethyl-5H-pyrrolo[3,2-d]pyrimidin-4-amine]
6 | 0.501 to 3.98 | ≥ 50.1 | ≥ 50.1 | ≥ 2 | Cc1nc(N)c2[nH]c(C)c(CCCCCCN3C[C@H](O)C[C@H](O)C3)c2n1 [Example 8, (3R,5S)-1-(6-(4-amino-2,6-dimethyl-5H-pyrrolo[3,2-d]pyrimidin-7-yl)hexyl)piperidine-3,5-diol]
7 | 0.501 to 3.98 | ≥ 50.1 | ≥ 50.1 | ≥ 2 | Cc1nc(N)c2[nH]c(C)c(CCCCCCN3C[C@H](O)C[C@@H](O)C3)c2n1 [Example 9, (3R,5R)-1-(6-(4-Amino-2,6-dimethyl-5H-pyrrolo[3,2-d]pyrimidin-7-yl)hexyl)piperidine-3,5-diol]
8 |  | ≥ 50.1 |  | ≥ 2 | Cc1nc(N)c2[nH]c(C)c(CCCCCCN(C)C)c2n1 [Example 10, 7-(6-(Dimethylamino)hexyl)-2,6-dimethyl-5H-pyrrolo[3,2-]pyrimidin-4-amine]
9 | 0.501 to 3.98 | ≥ 50.1 | ≥ 50.1 | ≥ 2 | Cc1nc(N)c2[nH]c(C)c(CCCCCCN3CCCCC3)c2n1 [Example 1, 2,6-Dimethyl-7-(6-(piperidin-1-yl)hexyl)-5H-pyrrolo[3,2-d]pyrimidin-4-amine]
10 | 0.501 to 3.98 | ≥ 50.1 | ≥ 50.1 | ≥ 2 | COCCN(CCO)CCCCCCc1c(C)[nH]c2c(N)nc(C)nc12 [Example 5, 2-((6-(4-Amino-2,6-dimethyl-5H-pyrrolo[3,2-d]pyrimidin-7-yl)hexyl)(2-methoxyethyl)amino)ethanol]
